We go through four compounds from the supplement of paper PMC10307832.

The test system of one experiment is HOP-62. Description: relative viability (nuclei count vs DMSO), 5 days (fraction); higher = more cells survive. To be noted: first compound 0.2 µM. In outline:
(§1)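 Medians of duplicate plates are given as relative viability. That measure is the nuclei count in treated wells divided by the count in vehicle wells. Counts were taken on 4× images of lung cancer cell lines in 1536-well plates, 5 days after pin-tool dosing the day after seeding with one drug alone or a fixed anchor-drug dose plus five library-drug doses (not always all listed) in √10 steps.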
In the case of `COCC1(CO)C(=O)C2CCN1CC2` (stereo unspecified) [PRIMA-1MET] + Cc1cc(Nc2cc(N3CCN(C)CC3)nc(Sc3ccc(NC(=O)C4CC4)cc3)n2)n[nH]1 [Tozasertib] (partner 0.1 µM), the relative viability was found to be 0.426.

`COCC1(CO)C(=O)C2CCN1CC2` (stereo unspecified) [PRIMA-1MET] + COc1cccc2cc(-c3nc([C@H]4CC[C@H](C(=O)O)CC4)n4ncnc(N)c34)[nH]c12 [OSI-027] (partner 0.5 µM) registered a relative viability of 0.965.

Still in this experiment, the particulars now being: first compound 0.6325 µM.
`COCC1(CO)C(=O)C2CCN1CC2` (stereo unspecified) [PRIMA-1MET] + CS(=O)(=O)CCNCc1ccc(-c2ccc3ncnc(Nc4ccc(OCc5cccc(F)c5)c(Cl)c4)c3c2)o1 [Lapatinib] (partner 2 µM) had a relative viability of 0.911.

`COCC1(CO)C(=O)C2CCN1CC2` (stereo unspecified) [PRIMA-1MET] + O=C(CCCCCCC(=O)Nc1ccccc1)NO [Vorinostat] (partner 1 µM): the relative viability came out at 0.445.

In turn, `COCC1(CO)C(=O)C2CCN1CC2` (stereo unspecified) [PRIMA-1MET] + Cc1cc(Nc2cc(N3CCN(C)CC3)nc(Sc3ccc(NC(=O)C4CC4)cc3)n2)n[nH]1 [Tozasertib] (partner 0.1 µM) had a relative viability of 0.341.

In turn, `COCC1(CO)C(=O)C2CCN1CC2` (stereo unspecified) [PRIMA-1MET] + COc1cccc2cc(-c3nc([C@H]4CC[C@H](C(=O)O)CC4)n4ncnc(N)c34)[nH]c12 [OSI-027] (partner 0.5 µM) yielded a relative viability of 0.808.

The experiment is the same for the next values; noted with them: first compound 2 µM.
`COCC1(CO)C(=O)C2CCN1CC2` (stereo unspecified) [PRIMA-1MET] + CS(=O)(=O)CCNCc1ccc(-c2ccc3ncnc(Nc4ccc(OCc5cccc(F)c5)c(Cl)c4)c3c2)o1 [Lapatinib] (partner 2 µM): the relative viability worked out at 0.887.

As for `COCC1(CO)C(=O)C2CCN1CC2` (stereo unspecified) [PRIMA-1MET] + O=C(CCCCCCC(=O)Nc1ccccc1)NO [Vorinostat] (partner 1 µM), the relative viability turned out to be 0.488.

With `COCC1(CO)C(=O)C2CCN1CC2` (stereo unspecified) [PRIMA-1MET] + Cc1cc(Nc2cc(N3CCN(C)CC3)nc(Sc3ccc(NC(=O)C4CC4)cc3)n2)n[nH]1 [Tozasertib] (partner 0.1 µM), the relative viability was 0.38.

With `COCC1(CO)C(=O)C2CCN1CC2` (stereo unspecified) [PRIMA-1MET] + COc1cccc2cc(-c3nc([C@H]4CC[C@H](C(=O)O)CC4)n4ncnc(N)c34)[nH]c12 [OSI-027] (partner 0.5 µM), the relative viability was 0.757.

The experiment is the same for the next values; noted with them: first compound 6.325 µM.
On to `COCC1(CO)C(=O)C2CCN1CC2` (stereo unspecified) [PRIMA-1MET] + CS(=O)(=O)CCNCc1ccc(-c2ccc3ncnc(Nc4ccc(OCc5cccc(F)c5)c(Cl)c4)c3c2)o1 [Lapatinib] (partner 2 µM), for which the relative viability turned out to be 1.06.

`COCC1(CO)C(=O)C2CCN1CC2` (stereo unspecified) [PRIMA-1MET] + O=C(CCCCCCC(=O)Nc1ccccc1)NO [Vorinostat] (partner 1 µM) gave a relative viability of 0.623.

`COCC1(CO)C(=O)C2CCN1CC2` (stereo unspecified) [PRIMA-1MET] + Cc1cc(Nc2cc(N3CCN(C)CC3)nc(Sc3ccc(NC(=O)C4CC4)cc3)n2)n[nH]1 [Tozasertib] (partner 0.1 µM) showed a relative viability of 0.383.

For `COCC1(CO)C(=O)C2CCN1CC2` (stereo unspecified) [PRIMA-1MET] + COc1cccc2cc(-c3nc([C@H]4CC[C@H](C(=O)O)CC4)n4ncnc(N)c34)[nH]c12 [OSI-027] (partner 0.5 µM), the relative viability came to 0.88.

The same experiment, now with this note: first compound 20 µM.
The compound `COCC1(CO)C(=O)C2CCN1CC2` (stereo unspecified) [PRIMA-1MET] + CS(=O)(=O)CCNCc1ccc(-c2ccc3ncnc(Nc4ccc(OCc5cccc(F)c5)c(Cl)c4)c3c2)o1 [Lapatinib] (partner 2 µM) returned a relative viability of 0.853.

Consider `COCC1(CO)C(=O)C2CCN1CC2` (stereo unspecified) [PRIMA-1MET] + O=C(CCCCCCC(=O)Nc1ccccc1)NO [Vorinostat] (partner 1 µM), for which the relative viability stood at 0.245.

`COCC1(CO)C(=O)C2CCN1CC2` (stereo unspecified) [PRIMA-1MET] + Cc1cc(Nc2cc(N3CCN(C)CC3)nc(Sc3ccc(NC(=O)C4CC4)cc3)n2)n[nH]1 [Tozasertib] (partner 0.1 µM) came in with a relative viability of 0.305.

In turn, `COCC1(CO)C(=O)C2CCN1CC2` (stereo unspecified) [PRIMA-1MET] + COc1cccc2cc(-c3nc([C@H]4CC[C@H](C(=O)O)CC4)n4ncnc(N)c34)[nH]c12 [OSI-027] (partner 0.5 µM) displayed a relative viability of 0.754.

The next experiment deals with LC-2-ad. The description is as above. To be noted: first compound 0.2 µM. In outline:
as §1
As for `COCC1(CO)C(=O)C2CCN1CC2` (stereo unspecified) [PRIMA-1MET] + CS(=O)(=O)CCNCc1ccc(-c2ccc3ncnc(Nc4ccc(OCc5cccc(F)c5)c(Cl)c4)c3c2)o1 [Lapatinib] (partner 2 µM), the relative viability was 1.15.

As for `COCC1(CO)C(=O)C2CCN1CC2` (stereo unspecified) [PRIMA-1MET] + O=C(CCCCCCC(=O)Nc1ccccc1)NO [Vorinostat] (partner 1 µM), the relative viability was found to be 0.798.

`COCC1(CO)C(=O)C2CCN1CC2` (stereo unspecified) [PRIMA-1MET] + Cc1cc(Nc2cc(N3CCN(C)CC3)nc(Sc3ccc(NC(=O)C4CC4)cc3)n2)n[nH]1 [Tozasertib] (partner 0.1 µM): the relative viability stood at 0.422.

`COCC1(CO)C(=O)C2CCN1CC2` (stereo unspecified) [PRIMA-1MET] + COc1cccc2cc(-c3nc([C@H]4CC[C@H](C(=O)O)CC4)n4ncnc(N)c34)[nH]c12 [OSI-027] (partner 0.5 µM) registered a relative viability of 0.854.

Staying with this experiment, now noted: first compound 0.6325 µM.
`COCC1(CO)C(=O)C2CCN1CC2` (stereo unspecified) [PRIMA-1MET] + CS(=O)(=O)CCNCc1ccc(-c2ccc3ncnc(Nc4ccc(OCc5cccc(F)c5)c(Cl)c4)c3c2)o1 [Lapatinib] (partner 2 µM) registered a relative viability of 0.831.

Turning to `COCC1(CO)C(=O)C2CCN1CC2` (stereo unspecified) [PRIMA-1MET] + O=C(CCCCCCC(=O)Nc1ccccc1)NO [Vorinostat] (partner 1 µM), the relative viability came to 0.578.

Staying with this experiment, now noted: first compound 2 µM.
Compound `COCC1(CO)C(=O)C2CCN1CC2` (stereo unspecified) [PRIMA-1MET] + CS(=O)(=O)CCNCc1ccc(-c2ccc3ncnc(Nc4ccc(OCc5cccc(F)c5)c(Cl)c4)c3c2)o1 [Lapatinib] (partner 2 µM) registered a relative viability of 0.769.

`COCC1(CO)C(=O)C2CCN1CC2` (stereo unspecified) [PRIMA-1MET] + O=C(CCCCCCC(=O)Nc1ccccc1)NO [Vorinostat] (partner 1 µM) yielded a relative viability of 0.679.
